Laboratory results as given in US20160040240A1, “CACNA1C ALLELE AND TREATMENT OF MOOD DISORDERS” (THE UNIVERSITY OF CHICAGO, priority 2014, published 2016).

Columns and labels:
patient with TS Type 2 = test: Case report: treatment of a patient with Timothy Syndrome type 2 and bipolar disorder; format: in vivo, human
Text: The patient is a person with TS Type 2 (see below) diagnosed in childhood. The patient was referred for research evaluation after diagnosis of BD by one of us (FO). This was confirmed by interview with the patient and their parent, using the Diagnostic Interview for Genetic Studies (DIGS), version 3.0.
Ten months after starting the medication, they were referred to a neurologist, who found depression and prescribed citalopram.
They were restarted on their antidepressant and has been stable for the three years of observation since then. We note that this is not a typical course of BD, and that further observation will be needed to fully define their course.

[1] = verapamil: particularly in males; cited from earlier work
[2] = clinical use; cited from earlier work
[3] = system: L-type channel of the Cav1.2 protein; details: cited from earlier work
[4] = system: neuronal induced pluripotent stem cells (iPSCs) derived from TS patients; details: TS patient iPSC-derived neuronal cells; cited from earlier work
[5] = verapamil at 250 mg/d, TS patient

## [Li] [Lithium]
Patient with TS Type 2; given for mood stabilization, complaints of increased lethargy and irritability
  tolerability: not well tolerated

## COC(=O)C1=C(C)NC(C)=C(C(=O)OCCN(C)Cc2ccccc2)C1c1cccc([N+](=O)[O-])c1 (stereo not drawn) [Nicardipine]
[1]
  penetration into the brain / crossing of the blood-brain barrier: satisfactorily crosses
[2]
  common side effects: headache, peripheral edema, dizziness, flushing, asthenia, angina, hypotension, nausea/vomiting, tachycardia, and palpitations

## CC[C@H](CO)Nc1nc(NCc2ccccc2)c2ncn(C(C)C)c2n1 [roscovitine]
[3]
  inactivation of the L-type channel: enhanced (normalized)
[4]
  reduction in the proportion of TH-positive neurons: 68%
  reversal of excess expression of TH: succeeds in reversing

## COc1ccc(CCN(C)CCCC(C#N)(c2ccc(OC)c(OC)c2)C(C)C)cc1OC (stereo not drawn) [verapamil]
Patient with TS Type 2; [5]
  QT interval: no change
  episodes of atrial fibrillation: continued to have some episodes
  number of ventricular fibrillation episodes: marked decrease
